Measurements: the supplement of paper PMC11208160

Test: recombinant barcode read abundance after kanamycin selection (control-corrected) (log10(CPM+1)); higher = more efficient recombination; sequences stand for … in AGTGCAGAGAAAATCGGCCAGTTTTCTCTGCCTGCAGTCCGCATGCCGT…AGATTTATGCAGCGGACTGCCTTTCTCCCAAAGTGATAAACCGGACAGTATCATGGACCGGTTTTCCCGGTAATCCGTATTTGCAAGGTTGGTTTCACT; site = the 11-nt target
Procedure, shortened: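 Targets and IS621 bridge RNA target-binding loops were paired in oligos, each with a promoter, a barcode and the J23119-driven first 104 bridge RNA bases. A vector carrying the remaining 73 bp and a T7-inducible recombinase received these by Gibson cloning, and the pool was co-electroporated into E. coli with a donor plasmid. Duplicate plates contained chloramphenicol/ampicillin LB agar (control) or chloramphenicol/ampicillin/kanamycin with 0.1 mM IPTG. Recombination efficiency comes from averaged, control-corrected counts per million of recombinant-junction barcodes, reported as log10(CPM+1).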
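Note: IS621 recombinase and bridge RNA in Escherichia coli cells.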

Sequence | recombinant barcode read abundance (log10)
GAGTTGCCTTGGGTTCTAACCTGTTGCGT (site GAGTTACCTAC) | 1.96
GAGTTGCCTTGGGTTCTAACCTGTTGCGT (site GAGTTCCCTAC) | 0.108
GAGTTGCCTTGGGTTCTAACCTGTTGCGT (site GAGTTGCCTAC) | 1.68
GAGTTGCCTTGGGTTCTAACCTGTTGCGT (site GAGTTTCCTAC) | 0.0593
GAGTTTCCTTGGGTTCTAACCTGTTGCAG (site GAGCGTCCTCT) | 0.118
GAGTTTCCTTGGGTTCTAACCTGTTGCAG (site GAGTTTCCTCT) | 0.343
GATAGAGCTTGGGTTCTAACCTGTTGCCG (site GATAGAGCTCG) | 0.772
GATAGAGCTTGGGTTCTAACCTGTTGCCG (site GATATAGCTAG) | 0
GATAGGCCTTGGGTTCTAACCTGTTGCTT (site AATTGGCCTAA) | 0.0314
GATAGGCCTTGGGTTCTAACCTGTTGCTT (site GATAGGCCTAA) | 0.371
GATAGTACTTGGGTTCTAACCTGTTGCCT (site GATAGTACTAG) | 1.48
GATAGTACTTGGGTTCTAACCTGTTGCCT (site GATAGTCCTAG) | 0.0718
GATAGTACTTGGGTTCTAACCTGTTGCCT (site GATAGTGCTAG) | 0.0995
GATAGTACTTGGGTTCTAACCTGTTGCCT (site GATAGTTCTAG) | 0.17
GATAGTTCTTGGGTTCTAACCTGTTGCCT (site GATAGTACTAG) | 0.0904
GATAGTTCTTGGGTTCTAACCTGTTGCCT (site GATAGTCCTAG) | 0.675
GATAGTTCTTGGGTTCTAACCTGTTGCCT (site GATAGTGCTAG) | 0.132
GATAGTTCTTGGGTTCTAACCTGTTGCCT (site GATAGTTCTAG) | 0.264
GATCATCCTTGGGTTCTAACCTGTTGCCT (site GATCATCCTAG) | 0.364
GATCATCCTTGGGTTCTAACCTGTTGCCT (site GTTCATCCTAG) | 0.0462
GATCCATCTTGGGTTCTAACCTGTTGCCT (site GATCCATCTAG) | 0.561
GATCCATCTTGGGTTCTAACCTGTTGCCT (site GCTCCATCTAG) | 0.251

Sequence | recombinant barcode read abundance (log10)
GATCCATCTTGGGTTCTAACCTGTTGCCT (site GGTCCATCTAG) | 0.209
GATCCATCTTGGGTTCTAACCTGTTGCCT (site GTTCCATCTAG) | 0.142
GATCCGTCTTGGGTTCTAACCTGTTGCGG (site GATCCGTCTCC) | 0.136
GATCCGTCTTGGGTTCTAACCTGTTGCGG (site GGTCCGGCTCC) | 0.551
GATCCTACTTGGGTTCTAACCTGTTGCCT (site GATCCTACTAG) | 1.14
GATCCTACTTGGGTTCTAACCTGTTGCCT (site GCTCCTACTAG) | 0.0495
GATCCTACTTGGGTTCTAACCTGTTGCCT (site GGTCCTACTAG) | 0.346
GATCCTACTTGGGTTCTAACCTGTTGCCT (site GTTCCTACTAG) | 0.0681
GATCGATCTTGGGTTCTAACCTGTTGCGT (site GATCGATCTAA) | 0.197
GATCGATCTTGGGTTCTAACCTGTTGCGT (site GATCGATCTAC) | 1.46
GATCGATCTTGGGTTCTAACCTGTTGCGT (site GATCGATCTAG) | 0.284
GATCGATCTTGGGTTCTAACCTGTTGCGT (site GATCGATCTAT) | 0.265
GATCTGCCTTGGGTTCTAACCTGTTGCCT (site GATCAGCCTAG) | 0.246
GATCTGCCTTGGGTTCTAACCTGTTGCCT (site GATCTGCCTAG) | 0.984
GATGGGACTTGGGTTCTAACCTGTTGCCG (site GATAGGACTAG) | 0.0533
GATGGGACTTGGGTTCTAACCTGTTGCCG (site GATGGGACTCG) | 2.19
GATGTGCCTTGGGTTCTAACCTGTTGCGT (site CCGCGAGCTCG) | 0.0696
GATGTGCCTTGGGTTCTAACCTGTTGCGT (site GATGTGCCTAC) | 2.57
GATTATGCTTGGGTTCTAACCTGTTGCCT (site GAGTATGCTAG) | 0.259
GATTATGCTTGGGTTCTAACCTGTTGCCT (site GATTATGCTAG) | 0.615
GATTCTACTTGGGTTCTAACCTGTTGCTT (site GAATCTACTAA) | 0.155
GATTCTACTTGGGTTCTAACCTGTTGCTT (site GACTCTACTAA) | 0.22

Sequence | recombinant barcode read abundance (log10)
GATTCTACTTGGGTTCTAACCTGTTGCTT (site GAGTCTACTAA) | 0.813
GATTCTACTTGGGTTCTAACCTGTTGCTT (site GATTCTACTAA) | 0.0583
GATTTCGCTTGGGTTCTAACCTGTTGCCT (site ATCAGTTCTCA) | 0.0643
GATTTCGCTTGGGTTCTAACCTGTTGCCT (site GATTTCGCTAG) | 0.42
GCAAGCTCTTGGGTTCTAACCTGTTGCTA (site GCAAGCTCTTA) | 1.3
GCAAGCTCTTGGGTTCTAACCTGTTGCTA (site GCAAGGTCTTA) | 0.36
GCAAGGGCTTGGGTTCTAACCTGTTGCCG (site GCAAGGGCTCG) | 1.24
GCAAGGGCTTGGGTTCTAACCTGTTGCCG (site GCTAGGGCTCT) | 0.303
GCAAGGTCTTGGGTTCTAACCTGTTGCAT (site CGTTCTCCTTA) | 0.18
GCAAGGTCTTGGGTTCTAACCTGTTGCAT (site GCAAGGTCTAT) | 2.5
GCAAGGTCTTGGGTTCTAACCTGTTGCTA (site GCAAGCTCTTA) | 0.133
GCAAGGTCTTGGGTTCTAACCTGTTGCTA (site GCAAGGTCTTA) | 1.98
GCAAGTCCTTGGGTTCTAACCTGTTGCGT (site CATGCCTCTCG) | 0.0651
GCAAGTCCTTGGGTTCTAACCTGTTGCGT (site GCAAGTCCTAC) | 2.47
GCAAGTTCTTGGGTTCTAACCTGTTGCCT (site GAAAGTTCTAG) | 0.113
GCAAGTTCTTGGGTTCTAACCTGTTGCCT (site GCAAGTTCTAG) | 1.33
GCAAGTTCTTGGGTTCTAACCTGTTGCCT (site GGAAGTTCTAG) | 0.172
GCAAGTTCTTGGGTTCTAACCTGTTGCCT (site GTAAGTTCTAG) | 0.229
GCAATATCTTGGGTTCTAACCTGTTGCCT (site AAGTCTCCTCT) | 0.0108
GCAATATCTTGGGTTCTAACCTGTTGCCT (site GCAATATCTAG) | 1.26
GCACAACCTTGGGTTCTAACCTGTTGCCT (site GCACAACCTAG) | 1.89
GCACAACCTTGGGTTCTAACCTGTTGCCT (site GCACCACCTAG) | 0.0258

Sequence | recombinant barcode read abundance (log10)
GCACAACCTTGGGTTCTAACCTGTTGCCT (site GCACGACCTAG) | 0.214
GCACAACCTTGGGTTCTAACCTGTTGCCT (site GCACTACCTAG) | 0.0085
GCACACACTTGGGTTCTAACCTGTTGCTG (site GAACACACTCG) | 0
GCACACACTTGGGTTCTAACCTGTTGCTG (site GCACACACTCA) | 2.5
GCACACTCTTGGGTTCTAACCTGTTGCCT (site GCACACTCTAG) | 2.43
GCACACTCTTGGGTTCTAACCTGTTGCCT (site GCACCCTCTAG) | 0.128
GCACACTCTTGGGTTCTAACCTGTTGCCT (site GCACGCTCTAG) | 0
GCACACTCTTGGGTTCTAACCTGTTGCCT (site GCACTCTCTAG) | 0.261
GCACATTCTTGGGTTCTAACCTGTTGCCT (site GCACATACTAG) | 0.0258
GCACATTCTTGGGTTCTAACCTGTTGCCT (site GCACATTCTAG) | 1.17
GCACCCTCTTGGGTTCTAACCTGTTGCCT (site GCACACTCTAG) | 0.0655
GCACCCTCTTGGGTTCTAACCTGTTGCCT (site GCACCCTCTAG) | 2.67
GCACCCTCTTGGGTTCTAACCTGTTGCCT (site GCACGCTCTAG) | 0.0715
GCACCCTCTTGGGTTCTAACCTGTTGCCT (site GCACTCTCTAG) | 0.0191
GCACGTGCTTGGGTTCTAACCTGTTGCCT (site GCACGTGCTAG) | 0.624
GCACGTGCTTGGGTTCTAACCTGTTGCCT (site GCCCGTGCTAG) | 0.141
GCACGTGCTTGGGTTCTAACCTGTTGCCT (site GCGCGTGCTAG) | 0.0268
GCACGTGCTTGGGTTCTAACCTGTTGCCT (site GCTCGTGCTAG) | 0.0446
GCACTAGCTTGGGTTCTAACCTGTTGCGT (site GCACTAACTAG) | 0.17
GCACTAGCTTGGGTTCTAACCTGTTGCGT (site GCACTAGCTAC) | 2.54
